# Literature values, collected in patent US5869086A, “Systems for the controlled release of pilocarpine” (LTS Lohmann Therapie-Systeme GmbH, priority 1993, dated 1999).
# Experiments:
# [1] = test system: patients suffering from glaucoma (eye); conditions: applied to the eye
# adults = conditions: systemic, single maximum dose for adults; German Federal Board of Health
# [2] = test system: postganglionic, parasympathetic acetylcholine receptors; conditions: textbook
compound,measurement,setting,value
"CC[C@@H]1C(=O)OC[C@@H]1Cc1cncn1C [pilocarpine, (3S, 4R)-3-ethyl-4,5-dihydro-4-(1-methyl-1H-imidazole-5-ylmethyl)-2(3H)-furanone]",duration of one application,[1],4 to 6 h
same,dosage at which risks are likely to arise,adults,below 20 mg
same,action on acetylcholine receptors,[2],"specifically stimulates the postganglionic, parasympathetic acetylcholine receptors"
same,hazard of high systemic doses,"heart; high doses, effect on the heart",hazardous to patients' life and health
same,impairment of the heart function compared with carbachol,"heart; textbook, general application",impairment of the heart function is more distinct
